Results taken from patent US12077503B2, “Substituted cyclic amides and their use as herbicides” (FMC CORPORATION, priority 2015, dated 2024).

Assays:
Format in all cases: in vivo
Kochia (Kochia scoparia) [1] = test: Test A preemergence; settings: Bassia scoparia, pre-emergence, 240 h; for pest or weed control at 125 g/ha: 125 g ai/ha, Preemergence, visual injury rating after approximately 10 d, read-out: Kochia plant response rating (0 to 100 scale, 0 is no effect, 100 is complete control); for pest or weed control at 500 g/ha: 500 g ai/ha, preemergence, visual injury rating about 10 d after treatment, 0 to 100 scale (0 no effect, 100 complete control), read-out: Kochia plant response rating
Summary of the method: (§1)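 Greenhouse, ~10 d after spray; visual injury vs untreated controls, 0 = no effect, 100 = complete control. Preemergence: directed soil spray over planted seeds. Postemergence: plants 2–10 cm, 1–2 leaf stage. Loam/sand blend. Compound in non-phytotoxic solvent with surfactant.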

[2] = tested on: barnyardgrass (Echinochloa crus-galli); test: Test A preemergence; settings: Echinochloa crus-galli, pre-emergence, 240 h; for pest or weed control at 125 g/ha: 125 g ai/ha, Preemergence, visual injury rating after approximately 10 d, read-out: Barnyardgrass plant response rating (0 to 100 scale, 0 is no effect, 100 is complete control); for pest or weed control at 500 g/ha: 500 g ai/ha, preemergence, visual injury rating about 10 d after treatment, 0 to 100 scale (0 no effect, 100 complete control), read-out: Barnyardgrass plant response rating
Summary of the method: as §1

[3] = tested on: giant foxtail (Setaria faberii); test: Test A preemergence; settings: Setaria faberi, pre-emergence, 240 h; for pest or weed control at 125 g/ha: 125 g ai/ha, Preemergence, visual injury rating after approximately 10 d, read-out: Foxtail, Giant plant response rating (0 to 100 scale, 0 is no effect, 100 is complete control); for pest or weed control at 500 g/ha: 500 g ai/ha, preemergence, visual injury rating about 10 d after treatment, 0 to 100 scale (0 no effect, 100 complete control), read-out: Foxtail, Giant plant response rating
Summary of the method: as §1

[4] = tested on: pigweed (Amaranthus retroflexus); test: Test A preemergence; settings: Amaranthus retroflexus, pre-emergence, 240 h; for pest or weed control at 125 g/ha: 125 g ai/ha, Preemergence, visual injury rating after approximately 10 d, read-out: Pigweed plant response rating (0 to 100 scale, 0 is no effect, 100 is complete control); for pest or weed control at 500 g/ha: 500 g ai/ha, preemergence, visual injury rating about 10 d after treatment, 0 to 100 scale (0 no effect, 100 complete control), read-out: Pigweed plant response rating
[5] = tested on: ragweed (common ragweed, Ambrosia elatior); test: Test A preemergence; settings: Ambrosia artemisiifolia, pre-emergence, 240 h; for pest or weed control at 125 g/ha: 125 g ai/ha, Preemergence, visual injury rating after approximately 10 d, read-out: Ragweed plant response rating (0 to 100 scale, 0 is no effect, 100 is complete control); for pest or weed control at 500 g/ha: 500 g ai/ha, preemergence, visual injury rating about 10 d after treatment, 0 to 100 scale (0 no effect, 100 complete control), read-out: Ragweed plant response rating
Summary of the method: as §1

[6] = tested on: ryegrass, Italian (Italian ryegrass, Lolium multiflorum); test: Test A preemergence; settings: Lolium multiflorum, pre-emergence, 240 h; for pest or weed control at 125 g/ha: 125 g ai/ha, Preemergence, visual injury rating after approximately 10 d, read-out: Ryegrass, Italian plant response rating (0 to 100 scale, 0 is no effect, 100 is complete control); for pest or weed control at 500 g/ha: 500 g ai/ha, preemergence, visual injury rating about 10 d after treatment, 0 to 100 scale (0 no effect, 100 complete control), read-out: Ryegrass, Italian plant response rating
Summary of the method: as §1

[7] = tested on: Galium (catchweed bedstraw, Galium aparine); test: Test A postemergence; settings: Galium, post-emergence, 240 h, 125 g ai/ha, Postemergence; visual injury after approximately 10 d; 0 to 100 scale where 0 is no effect and 100 is complete control; read-out: Plant response rating, Galium
Summary of the method: as §1

Kochia (Kochia scoparia) [8] = test: Test A postemergence; settings: Bassia scoparia, post-emergence, 240 h, 125 g ai/ha, Postemergence; visual injury after approximately 10 d; 0 to 100 scale where 0 is no effect and 100 is complete control; read-out: Plant response rating, Kochia
Summary of the method: as §1

[9] = tested on: blackgrass (Alopecurus myosuroides); test: Test A postemergence; settings: Alopecurus myosuroides, post-emergence, 240 h, 125 g ai/ha, Postemergence; visual injury after approximately 10 d; 0 to 100 scale where 0 is no effect and 100 is complete control; read-out: Plant response rating, Blackgrass
Summary of the method: as §1

corn (Zea mays) = test: Test A postemergence; settings: Zea mays, post-emergence, 240 h, 125 g ai/ha, Postemergence; visual injury after approximately 10 d; 0 to 100 scale where 0 is no effect and 100 is complete control
Summary of the method: as §1

[10] = tested on: giant foxtail (Setaria faberii); test: Test A postemergence; settings: Setaria faberi, post-emergence, 240 h, 125 g ai/ha, Postemergence; visual injury after approximately 10 d; 0 to 100 scale where 0 is no effect and 100 is complete control; read-out: Plant response rating, Foxtail, Giant
Summary of the method: as §1

[11] = tested on: pigweed (Amaranthus retroflexus); test: Test A postemergence; settings: Amaranthus retroflexus, post-emergence, 240 h, 125 g ai/ha, Postemergence; visual injury after approximately 10 d; 0 to 100 scale where 0 is no effect and 100 is complete control; read-out: Plant response rating, Pigweed
Summary of the method: as §1

[12] = tested on: ragweed (common ragweed, Ambrosia elatior); test: Test A postemergence; settings: Ambrosia artemisiifolia, post-emergence, 240 h, 125 g ai/ha, Postemergence; visual injury after approximately 10 d; 0 to 100 scale where 0 is no effect and 100 is complete control; read-out: Plant response rating, Ragweed
Summary of the method: as §1

[13] = tested on: ryegrass, Italian (Italian ryegrass, Lolium multiflorum); test: Test A postemergence; settings: Lolium multiflorum, post-emergence, 240 h, 125 g ai/ha, Postemergence; visual injury after approximately 10 d; 0 to 100 scale where 0 is no effect and 100 is complete control; read-out: Plant response rating, Ryegrass, Italian
Summary of the method: as §1

[14] = tested on: wheat (Triticum aestivum); test: Test A postemergence; settings: Triticum aestivum, post-emergence, 240 h, 125 g ai/ha, Postemergence; visual injury after approximately 10 d; 0 to 100 scale where 0 is no effect and 100 is complete control; read-out: Plant response rating, Wheat
Summary of the method: as §1

[15] = tested on: barnyardgrass (Echinochloa crus-galli); test: Test B flooded paddy test; settings: Echinochloa crus-galli, Flood, 250 g ai/ha; scale of 0 to 100 where 0 is no effect and 100 is complete control; read-out: Barnyardgrass plant response rating
Summary of the method: (§2)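 2-leaf plants; pots flooded 3 cm over soil; cpd added to paddy water; depth held; greenhouse 13–15 d; visual rating vs controls, 0 = no effect, 100 = complete control.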

[16] = tested on: ducksalad (Heteranthera limosa); test: Test B flooded paddy test; settings: Heteranthera limosa, Flood, 250 g ai/ha; scale of 0 to 100 where 0 is no effect and 100 is complete control; read-out: Ducksalad plant response rating
Summary of the method: as §2

rice (Oryra sativa) = test: Test B flooded paddy test; settings: Oryza sativa, Flood, 250 g ai/ha; scale of 0 to 100 where 0 is no effect and 100 is complete control; read-out: Rice plant response rating
Summary of the method: as §2

[17] = tested on: sedge, umbrella (small-flower umbrella sedge, Cyperus difformis); test: Test B flooded paddy test; settings: Cyperus difformis, Flood, 250 g ai/ha; scale of 0 to 100 where 0 is no effect and 100 is complete control; read-out: Sedge, Umbrella plant response rating
Summary of the method: as §2

| SMILES | pest or weed control at 125 g/ha (Kochia (Kochia scoparia) [1]) | pest or weed control at 500 g/ha (Kochia (Kochia scoparia) [1]) | pest or weed control at 125 g/ha [2] | pest or weed control at 500 g/ha [2] | pest or weed control at 125 g/ha [3] | pest or weed control at 500 g/ha [3] | pest or weed control at 125 g/ha [4] | pest or weed control at 500 g/ha [4] | pest or weed control at 500 g/ha [5] | pest or weed control at 125 g/ha [6] | pest or weed control at 500 g/ha [6] | pest or weed control at 125 g/ha [7] | pest or weed control at 125 g/ha (Kochia (Kochia scoparia) [8]) | pest or weed control at 125 g/ha [9] | Corn plant response rating (crop injury, 0 = no effect, 100 = complete kill) at 125 g/ha (corn (Zea mays)) | pest or weed control at 125 g/ha [10] | pest or weed control at 125 g/ha [11] | pest or weed control at 125 g/ha [12] | pest or weed control at 125 g/ha [13] | plant injury at 125 g/ha [14] | further results |
| --- | --- | --- | --- | --- | --- | --- | --- | --- | --- | --- | --- | --- | --- | --- | --- | --- | --- | --- | --- | --- | --- |
| CN1C[C@H](c2cc(F)cc(Cl)c2)[C@@H](C(=O)Nc2cccc(F)c2F)C1=O [Compound 974] | 90% | 100% | 90% | 100% | 90% | 90% | 20% | 60% | 90% | 70% | 90% | 50% | 70% | 70% | 70% | 90% | 40% | 20% | 70% | 70% | pest or weed control at 125 g/ha [5]: 90%; pest or weed control at 250 g/ha [15]: 60%; pest or weed control at 250 g/ha [16]: 100%; pest or weed control at 250 g/ha (rice (Oryra sativa)): 15%; pest or weed control at 250 g/ha [17]: 0% |
| CN1C[C@H](c2cc(F)cc(Cl)c2)[C@@H](C(=O)Nc2ccccc2F)C1=O [Compound 976] | 70% | 90% | 90% | 100% | 90% | 90% | 0% | 50% | 90% | 50% | 80% | 0% | 30% | 40% | 60% | 90% | 0% | 0% | 20% | 40% | pest or weed control at 250 g/ha [15]: 65%; pest or weed control at 250 g/ha [16]: 95%; pest or weed control at 250 g/ha (rice (Oryra sativa)): 20%; pest or weed control at 250 g/ha [17]: 0% |
| COc1cc(OC)cc([C@H]2CN(C)C(=O)[C@@H]2C(=O)Nc2ccccc2F)c1 [Compound 980] | 0% | 90% | 90% | 100% | 90% | 100% | 0% | 0% | 20% | 20% | 30% | 0% | 0% | 0% | 0% | 90% | 0% | 0% | 0% | 0% | pest or weed control at 125 g/ha [5]: 0%; pest or weed control at 250 g/ha [15]: 60%; pest or weed control at 250 g/ha [16]: 0%; pest or weed control at 250 g/ha (rice (Oryra sativa)): 30%; pest or weed control at 250 g/ha [17]: 0% |
| CSc1ccccc1NC(=O)[C@H]1C(=O)N(C)C[C@@H]1c1ccc(C)c(F)c1 [Compound 983] | 90% | 90% | 90% | 100% | 100% | 100% | 0% | 40% | 100% | 30% | 60% | 30% | 50% | 30% | 20% | 90% | 0% | 0% | 20% | 30% | pest or weed control at 125 g/ha [5]: 70%; pest or weed control at 250 g/ha [15]: 30%; pest or weed control at 250 g/ha [16]: 100%; pest or weed control at 250 g/ha (rice (Oryra sativa)): 0%; pest or weed control at 250 g/ha [17]: 0% |
